ChEMBL document CHEMBL5649165, “The E3 ligase Cbl-b and TAM receptors regulate cancer metastasis via natural killer cells” (Nature, 2014)
The source made the active and inactive calls. The calls are words filed in the database; no cut-off is given here.

What was measured:
[1] = molecular target: T1, Tyrosine-protein kinase Mer (Homo sapiens, UniProt Q12866)
T1 sequence (Q12866 whole entry): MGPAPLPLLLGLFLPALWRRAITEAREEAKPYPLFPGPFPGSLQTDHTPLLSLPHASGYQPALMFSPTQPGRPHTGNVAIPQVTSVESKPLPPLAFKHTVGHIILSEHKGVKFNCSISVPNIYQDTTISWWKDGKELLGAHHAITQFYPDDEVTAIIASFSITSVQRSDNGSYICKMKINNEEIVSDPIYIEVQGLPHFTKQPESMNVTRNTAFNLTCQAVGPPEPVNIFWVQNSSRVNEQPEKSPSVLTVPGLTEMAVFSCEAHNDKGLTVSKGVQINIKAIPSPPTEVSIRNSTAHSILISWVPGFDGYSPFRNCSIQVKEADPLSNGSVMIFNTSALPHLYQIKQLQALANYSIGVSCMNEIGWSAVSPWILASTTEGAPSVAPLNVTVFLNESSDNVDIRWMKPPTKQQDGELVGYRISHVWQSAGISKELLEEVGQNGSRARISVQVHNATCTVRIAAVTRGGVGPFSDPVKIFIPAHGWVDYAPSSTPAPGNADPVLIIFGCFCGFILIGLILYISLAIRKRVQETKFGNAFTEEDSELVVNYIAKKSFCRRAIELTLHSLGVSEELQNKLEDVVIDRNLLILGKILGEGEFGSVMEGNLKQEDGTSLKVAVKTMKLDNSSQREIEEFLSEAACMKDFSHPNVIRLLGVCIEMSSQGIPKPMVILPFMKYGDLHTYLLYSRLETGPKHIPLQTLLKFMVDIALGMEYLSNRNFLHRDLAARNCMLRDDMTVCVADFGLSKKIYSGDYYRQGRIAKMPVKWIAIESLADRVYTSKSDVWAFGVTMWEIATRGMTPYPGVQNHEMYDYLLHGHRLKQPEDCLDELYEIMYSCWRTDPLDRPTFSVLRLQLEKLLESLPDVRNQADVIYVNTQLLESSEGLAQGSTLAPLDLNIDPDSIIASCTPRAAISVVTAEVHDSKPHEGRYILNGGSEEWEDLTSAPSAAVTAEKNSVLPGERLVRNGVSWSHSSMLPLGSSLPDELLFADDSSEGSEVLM

[2] = molecular target: Hepatocyte growth factor receptor (Homo sapiens, UniProt P08581)
Aurora kinase B = Aurora kinase B (Homo sapiens, UniProt Q96GD4)
[3] = molecular target: Tyrosine-protein kinase Lck (Homo sapiens, UniProt P06239)
[4] = molecular target: T2, Proto-oncogene tyrosine-protein kinase Src (Homo sapiens, UniProt P12931)
[5] = molecular target: Cyclin-dependent kinase 8 (Homo sapiens, UniProt P49336)
[6] = molecular target: Tyrosine-protein kinase Fer (Homo sapiens, UniProt P16591); assay: biochemical
[7] = molecular target: T3, Dual specificity mitogen-activated protein kinase kinase 5 (Homo sapiens, UniProt Q13163); assay: biochemical
T3 sequence (Q13163 whole entry): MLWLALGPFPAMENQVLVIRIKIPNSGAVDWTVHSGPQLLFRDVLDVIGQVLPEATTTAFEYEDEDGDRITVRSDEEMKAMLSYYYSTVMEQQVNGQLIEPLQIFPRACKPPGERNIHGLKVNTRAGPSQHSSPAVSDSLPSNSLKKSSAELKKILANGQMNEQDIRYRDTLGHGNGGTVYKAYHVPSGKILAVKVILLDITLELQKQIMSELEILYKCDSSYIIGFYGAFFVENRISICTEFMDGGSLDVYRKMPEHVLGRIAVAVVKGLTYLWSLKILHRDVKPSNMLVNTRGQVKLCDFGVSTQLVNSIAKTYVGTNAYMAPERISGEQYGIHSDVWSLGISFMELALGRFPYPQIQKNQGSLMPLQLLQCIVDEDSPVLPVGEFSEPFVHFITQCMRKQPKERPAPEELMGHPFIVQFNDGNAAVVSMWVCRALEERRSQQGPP

[8] = molecular target: Tyrosine-protein kinase ABL1 (Homo sapiens, UniProt P00519); assay: biochemical
[9] = molecular target: T2, Proto-oncogene tyrosine-protein kinase Src; assay: biochemical
B16-F10 [10] = assay: Antitumor activity against mouse B16-F10 cells xenografted in Cbl-b+/+ mouse assessed as reduction in melanoma metastases in lungs at 0.5 mg/L, po administered for 16 days by haematoxylin and eosin staining based microscope analysis; format: functional, organism-based; settings: time 16.0 day
B16-F10 [11] = assay: Antitumor activity against mouse B16-F10 cells xenografted in Cbl-b+/- mouse assessed as reduction in melanoma metastases in lungs at 0.5 mg/L, po administered for 16 days by haematoxylin and eosin staining based microscope analysis; format: functional, organism-based; settings: time 16.0 day
B16-F10 [12] = assay: Antitumor activity against mouse B16-F10 cells xenografted in Cbl-b defective mouse assessed as reduction in melanoma metastases at 0.5 mg/L, po administered for 16 days by haematoxylin and eosin staining based microscope analysis; format: functional, organism-based; settings: time 16.0 day
B16-F10 [13] = assay: Antitumor activity against mouse B16-F10 cells xenografted in Cbl-b+/+ mouse assessed as coagulation at 0.5 mg/L, po administered for 16 days by coagulometer analysis; format: functional, organism-based; settings: time 16.0 day
B16-F10 [14] = assay: Antitumor activity against mouse B16-F10 cells xenografted in Cbl-b+/- mouse assessed as coagulation at 0.5 mg/L, po administered for 16 days by coagulometer analysis; format: functional, organism-based; settings: time 16.0 day
RMA-S [15] = assay: Cytotoxicity against RMA-S cells overexpressing Rae1 in Cbl-b+/+ mouse by flow cytometry analysis; format: functional, cell-based
RMA-S [16] = assay: Cytotoxicity against RMA-S cells in Cbl-b+/+ mouse by flow cytometry analysis; format: functional, cell-based
4T1 = assay: Anticoagulant activity against mouse 4T1 cells xenografted in Balb/c mouse assessed as prothrombin time at 0.5 mg/L, po administered for 16 days by coagulometer analysis (reference value: 15.10 +/- 1.46 sec); format: functional; settings: time 16 day

T2 sequence (P12931 whole entry, looked up): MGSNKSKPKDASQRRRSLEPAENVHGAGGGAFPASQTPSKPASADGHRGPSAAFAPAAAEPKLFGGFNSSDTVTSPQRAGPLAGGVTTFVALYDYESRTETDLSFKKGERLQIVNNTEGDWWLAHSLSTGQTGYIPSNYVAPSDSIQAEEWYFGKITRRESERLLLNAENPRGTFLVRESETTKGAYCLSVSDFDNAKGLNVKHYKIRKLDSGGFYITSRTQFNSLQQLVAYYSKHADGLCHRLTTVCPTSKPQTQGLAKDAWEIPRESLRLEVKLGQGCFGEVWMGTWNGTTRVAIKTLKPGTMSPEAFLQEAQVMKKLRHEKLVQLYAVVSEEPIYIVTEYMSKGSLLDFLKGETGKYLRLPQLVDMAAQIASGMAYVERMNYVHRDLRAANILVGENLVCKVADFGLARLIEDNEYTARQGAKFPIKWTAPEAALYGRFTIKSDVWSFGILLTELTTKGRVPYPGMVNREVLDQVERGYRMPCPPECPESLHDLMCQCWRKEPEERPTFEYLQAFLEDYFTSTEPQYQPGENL
Chain of Tyrosine-protein kinase Fer (P16591 whole entry): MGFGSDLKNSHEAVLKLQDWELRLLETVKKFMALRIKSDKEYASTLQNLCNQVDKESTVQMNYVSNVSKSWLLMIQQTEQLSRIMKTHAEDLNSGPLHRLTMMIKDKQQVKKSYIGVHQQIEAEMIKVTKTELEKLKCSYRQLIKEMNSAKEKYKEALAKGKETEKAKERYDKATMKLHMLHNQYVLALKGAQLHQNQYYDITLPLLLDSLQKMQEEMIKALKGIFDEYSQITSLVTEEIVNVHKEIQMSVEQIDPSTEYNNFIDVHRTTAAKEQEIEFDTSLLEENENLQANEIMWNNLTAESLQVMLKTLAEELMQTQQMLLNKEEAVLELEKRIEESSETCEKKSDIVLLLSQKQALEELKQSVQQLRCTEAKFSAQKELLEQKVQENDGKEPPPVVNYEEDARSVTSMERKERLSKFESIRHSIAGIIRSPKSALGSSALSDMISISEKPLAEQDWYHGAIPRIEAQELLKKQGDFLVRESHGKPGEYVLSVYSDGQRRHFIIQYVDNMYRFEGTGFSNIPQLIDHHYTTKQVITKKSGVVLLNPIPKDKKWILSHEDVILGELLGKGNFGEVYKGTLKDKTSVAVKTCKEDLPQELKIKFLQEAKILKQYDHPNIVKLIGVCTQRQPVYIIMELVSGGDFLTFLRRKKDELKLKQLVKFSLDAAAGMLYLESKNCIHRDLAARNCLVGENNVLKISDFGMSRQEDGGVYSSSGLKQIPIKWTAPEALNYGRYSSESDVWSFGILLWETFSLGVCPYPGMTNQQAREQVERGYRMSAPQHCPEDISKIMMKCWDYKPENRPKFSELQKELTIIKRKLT
Chain of Cyclin-dependent kinase 8 (P49336 whole entry): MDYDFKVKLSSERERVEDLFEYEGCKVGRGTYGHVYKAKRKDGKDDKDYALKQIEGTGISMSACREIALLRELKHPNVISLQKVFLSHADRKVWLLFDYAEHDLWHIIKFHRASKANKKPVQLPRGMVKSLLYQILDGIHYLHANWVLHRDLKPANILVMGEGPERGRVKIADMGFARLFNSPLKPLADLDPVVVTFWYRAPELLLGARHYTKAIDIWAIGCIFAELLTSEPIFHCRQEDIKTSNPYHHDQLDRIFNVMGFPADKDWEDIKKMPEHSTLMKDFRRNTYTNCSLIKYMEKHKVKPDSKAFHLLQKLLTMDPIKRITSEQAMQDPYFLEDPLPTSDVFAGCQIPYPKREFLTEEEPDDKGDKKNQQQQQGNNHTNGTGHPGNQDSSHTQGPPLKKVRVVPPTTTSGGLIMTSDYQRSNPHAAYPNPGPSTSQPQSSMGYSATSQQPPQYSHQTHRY
Chain of Hepatocyte growth factor receptor (P08581 whole entry): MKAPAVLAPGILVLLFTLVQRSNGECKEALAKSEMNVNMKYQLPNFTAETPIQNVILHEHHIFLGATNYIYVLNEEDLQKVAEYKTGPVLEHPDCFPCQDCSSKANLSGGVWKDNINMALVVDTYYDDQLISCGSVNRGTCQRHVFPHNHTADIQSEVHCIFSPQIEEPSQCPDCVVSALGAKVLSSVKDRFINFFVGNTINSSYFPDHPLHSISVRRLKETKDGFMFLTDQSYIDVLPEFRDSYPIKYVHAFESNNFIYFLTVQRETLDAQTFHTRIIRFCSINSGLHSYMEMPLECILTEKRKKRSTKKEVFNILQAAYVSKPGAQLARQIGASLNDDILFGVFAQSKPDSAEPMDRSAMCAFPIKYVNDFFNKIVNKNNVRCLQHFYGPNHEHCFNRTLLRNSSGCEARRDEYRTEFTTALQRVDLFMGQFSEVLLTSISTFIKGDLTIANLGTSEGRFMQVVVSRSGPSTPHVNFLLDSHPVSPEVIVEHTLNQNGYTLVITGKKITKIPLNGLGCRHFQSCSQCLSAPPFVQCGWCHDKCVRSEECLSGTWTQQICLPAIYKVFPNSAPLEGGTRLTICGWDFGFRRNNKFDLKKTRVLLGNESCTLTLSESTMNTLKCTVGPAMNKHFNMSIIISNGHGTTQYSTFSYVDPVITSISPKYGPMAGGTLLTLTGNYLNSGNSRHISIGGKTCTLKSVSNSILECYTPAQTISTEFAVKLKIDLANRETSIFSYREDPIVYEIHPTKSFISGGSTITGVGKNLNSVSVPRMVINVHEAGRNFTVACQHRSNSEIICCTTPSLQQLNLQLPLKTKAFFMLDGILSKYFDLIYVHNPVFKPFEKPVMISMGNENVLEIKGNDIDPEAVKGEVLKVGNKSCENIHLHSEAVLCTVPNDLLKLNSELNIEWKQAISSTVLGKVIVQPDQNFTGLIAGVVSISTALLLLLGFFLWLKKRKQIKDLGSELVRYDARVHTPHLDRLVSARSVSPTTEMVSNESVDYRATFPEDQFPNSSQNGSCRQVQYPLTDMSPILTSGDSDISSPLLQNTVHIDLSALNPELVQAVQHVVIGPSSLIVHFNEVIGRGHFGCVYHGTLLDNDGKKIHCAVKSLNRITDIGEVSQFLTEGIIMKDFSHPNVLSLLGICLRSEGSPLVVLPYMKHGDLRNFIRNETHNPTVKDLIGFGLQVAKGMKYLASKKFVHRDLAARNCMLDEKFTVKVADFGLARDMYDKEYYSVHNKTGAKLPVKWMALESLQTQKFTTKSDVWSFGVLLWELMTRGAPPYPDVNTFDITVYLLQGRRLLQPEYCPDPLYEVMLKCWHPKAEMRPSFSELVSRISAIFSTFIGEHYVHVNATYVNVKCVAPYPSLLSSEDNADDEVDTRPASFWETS
Chain of Aurora kinase B (Q96GD4 whole entry): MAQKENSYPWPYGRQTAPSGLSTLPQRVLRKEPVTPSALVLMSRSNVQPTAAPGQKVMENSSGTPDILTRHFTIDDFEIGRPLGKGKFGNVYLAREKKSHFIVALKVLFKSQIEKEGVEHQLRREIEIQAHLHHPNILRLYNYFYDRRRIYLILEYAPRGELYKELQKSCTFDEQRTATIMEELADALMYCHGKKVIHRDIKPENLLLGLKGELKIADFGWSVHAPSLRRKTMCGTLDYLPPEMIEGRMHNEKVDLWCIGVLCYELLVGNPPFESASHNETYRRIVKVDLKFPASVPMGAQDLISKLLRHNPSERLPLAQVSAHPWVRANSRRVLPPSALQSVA
Chain of Tyrosine-protein kinase ABL1 (P00519 whole entry): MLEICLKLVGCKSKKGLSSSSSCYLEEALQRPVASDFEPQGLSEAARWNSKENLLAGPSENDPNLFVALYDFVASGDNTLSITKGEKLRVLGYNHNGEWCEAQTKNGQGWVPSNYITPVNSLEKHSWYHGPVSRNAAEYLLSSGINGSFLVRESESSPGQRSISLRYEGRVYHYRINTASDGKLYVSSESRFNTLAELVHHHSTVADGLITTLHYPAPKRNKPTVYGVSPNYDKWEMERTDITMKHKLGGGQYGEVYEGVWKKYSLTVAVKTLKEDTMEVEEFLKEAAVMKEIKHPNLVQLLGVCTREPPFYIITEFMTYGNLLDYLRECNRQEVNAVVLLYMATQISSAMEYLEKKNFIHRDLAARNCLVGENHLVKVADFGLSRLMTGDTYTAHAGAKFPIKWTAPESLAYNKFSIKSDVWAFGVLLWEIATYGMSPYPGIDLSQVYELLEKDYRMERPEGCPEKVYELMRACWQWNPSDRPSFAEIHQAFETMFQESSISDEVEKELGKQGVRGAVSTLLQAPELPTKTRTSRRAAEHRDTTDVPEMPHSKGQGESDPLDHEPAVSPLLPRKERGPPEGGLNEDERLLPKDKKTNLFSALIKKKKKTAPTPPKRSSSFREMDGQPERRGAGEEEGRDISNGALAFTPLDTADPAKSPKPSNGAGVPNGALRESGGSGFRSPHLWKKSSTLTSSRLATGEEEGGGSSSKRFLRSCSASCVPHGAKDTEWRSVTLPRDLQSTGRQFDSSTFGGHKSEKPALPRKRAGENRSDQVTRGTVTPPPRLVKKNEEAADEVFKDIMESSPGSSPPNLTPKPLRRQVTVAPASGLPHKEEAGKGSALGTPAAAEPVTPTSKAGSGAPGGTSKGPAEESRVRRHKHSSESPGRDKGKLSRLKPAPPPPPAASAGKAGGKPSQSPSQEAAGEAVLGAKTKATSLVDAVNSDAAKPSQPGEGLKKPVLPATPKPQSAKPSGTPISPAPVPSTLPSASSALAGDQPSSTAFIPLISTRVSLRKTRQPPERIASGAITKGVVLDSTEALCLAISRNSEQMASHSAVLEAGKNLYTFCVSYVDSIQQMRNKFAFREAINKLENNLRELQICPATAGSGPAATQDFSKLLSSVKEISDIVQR

Row | SMILES | IC50 [1] [nM] | IC50 [2] [nM] | IC50 (Aurora kinase B) [nM] | IC50 [3] [nM] | IC50 [4] [nM] | IC50 [5] [nM] | Kd [6] [nM] | Kd [7] [nM] | Kd [8] [nM] | Kd [9] [nM] | Activity (B16-F10 [10]) | Activity (B16-F10 [11]) | Activity (B16-F10 [12]) | Activity (B16-F10 [13]) | Activity (B16-F10 [14]) | Activity (RMA-S [15]) | Activity (RMA-S [16]) | PT (4T1) [s]
1 | CCOc1cn(-c2ccc(F)cc2C)nc1C(=O)Nc1ccc(Oc2ccnc3cc(OC)c(OC)cc23)c(F)c1 | < 5 | 35 | 36 | 51 | 338 | 3170 | 107 | 124 | 154 | 217 |  |  |  |  |  |  |  | 
2 | CC(=O)CC(c1ccccc1)c1c(O)c2ccccc2oc1=O (stereo not drawn) [WARFARIN] |  |  |  |  |  |  |  |  |  |  | Active | Active | inactive | Active | Active | Active | Active | 19.13
